For data set [1] the following is noted: 298.15 K; 101.33 kPa; Liquid; Vibrating tube method.
Data set [2] in a line: refractive index (Na D-line) (dimensionless). As to conditions: 298.15 K; 101.33 kPa; Liquid; Standard Abbe refractometry.

Numbers after ± are expanded uncertainties.

On to `CCCn1cc[n+](C)c1.O=S(=O)([N-]S(=O)(=O)C(F)(F)F)C(F)(F)F`, for which the mass density in data set [1] amounted to 1474.44 ± 0.33 kg/m3. In addition, the refractive index in data set [2] stood at 1.42526 ± 0.00033.

Turning to `CCCC[n+]1ccn(C)c1.O=S(=O)([N-]S(=O)(=O)C(F)(F)F)C(F)(F)F`, in data set [1], the mass density is listed as 1436.35 ± 0.22 kg/m3. For the same compound, the refractive index in data set [2] was 1.42706 ± 0.00031.

For `CCCCCCCC` [octane], the mass density in data set [1] is 698.6 ± 0.25 kg/m3. The refractive index in data set [2] is reported as 1.39519 ± 0.00037.

For the compound `CCc1ccccc1` [ethylbenzene], the mass density in data set [1] stood at 862.51 ± 0.24 kg/m3. Further, the refractive index in data set [2] is recorded as 1.49304 ± 0.00037.

As for `c1ccccc1` [benzene], the mass density in data set [1] was found to be 873.57 ± 0.24 kg/m3. The refractive index in data set [2] is 1.49774 ± 0.00037.

As for `CCCCCCCCC` [nonane], the mass density in data set [1] was determined as 713.9 ± 0.17 kg/m3. Also, in data set [2], the refractive index is listed as 1.40326 ± 0.00031.

Turning to `Cc1ccccc1` [toluene], in data set [1], the mass density turned out to be 862.17 ± 0.13 kg/m3. For the same compound, the refractive index in data set [2] came to 1.49399 ± 0.00031.

By mass density is commonly meant mass per unit of volume. A word on the refractive index: it is the speed of light in vacuum divided by its phase velocity in the sample.
